Calls of active or inactive are those of the source.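 How the source made its calls: active means growth-inhibition EC50 no more than tenfold above the top tested dose; inconclusive means flat fit between 30% and 70% inhibition, or unreliable fit; inactive means EC50 more than tenfold above the top tested dose.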
What follows are compounds tested on E. coli NEB5alpha growth, BacTiter-Glo luminescence, 4 h (assay: Escherichia coli growth inhibition, dose response, counter-screen for MEX-5/POS-1 RNA-binding inhibitor project, luminescence, NEB5alpha (AID 1959);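 further: pUC19-transformed ampicillin-resistant cells grown in LB with ampicillin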).

Structure (SMILES) | EC50
COC(=O)CCCC1=CC2=CC(=O)C(C)(O)C(=O)C2=CO1 (stereo unspecified) | > 11 µM (inactive)
COc1ccc(N2C(=O)/C(=C/c3ccco3)C(=O)NC2=S)cc1 | > 11 µM (inactive)
CC1(C)CC(=O)C2=C(C1)OC(N)=C(C#N)[C@@]21C(=O)N(CC(N)=O)c2ccccc21 | > 11 µM (inactive)
CCCCc1ccc(/C=C2\C(=O)ON=C2c2ccccc2)s1 | > 11 µM (inactive)
COc1cc2ccccc2cc1C(=O)NC(=S)Nc1cc(C(=O)O)ccc1C | > 11 µM (inactive)
Cc1cc(/C=N/n2cnnc2)c(C)n1-c1ccc(C(=O)O)cc1 | > 11 µM (inactive)
C=CCN1C(=O)/C(=C2/Sc3ccc(OC)cc3N2CC)SC1=S | > 11 µM (inactive)
CCCN1CCc2cc(O)cc3c2[C@H]1Cc1ccc(O)c(O)c1-3 | > 11 µM (inactive)
CCOc1ccc2c(c1)/C(=C(\C(Cl)=C(Cl)Cl)[N+](=O)[O-])N2 | > 11 µM (inactive)
O=S(=O)(c1cccc(-c2csc(-c3cccnc3)n2)c1)N1CCOCC1 | > 11 µM (inactive)
O=C1N=C(N2C=CC(=C3C=CNC=C3)C=C2)/C(=C/N=NC(=O)c2ccccc2O)S1 | > 11 µM (inactive)
CCCCCCCCOc1ccc(C2OC34CCCCC3C(C#N)(C#N)C2(C#N)C(=N)O4)cc1 (stereo unspecified) | > 11 µM (inactive)
COc1cc(S(=O)(=O)Nc2ccc(C)cc2)ccc1N=Cc1c(C)c(C#N)c(=O)n(C)c1O | > 11 µM (inactive)
C=CCOc1ccc(C2C(C(=O)c3ccco3)=C(O)C(=O)N2c2nnc(C)s2)cc1 (stereo unspecified) | > 11 µM (inactive)
Cc1cccc(Oc2nc(-c3ccccn3)nc3ccccc23)c1 | > 11 µM (inactive)
O=C(N/N=C/C=C/c1ccc([N+](=O)[O-])cc1)c1cccs1 | > 11 µM (inactive)
CCCSc1nnc2nc3c(nn12)c1ccccc1n3C | > 11 µM (inactive)
CCc1cc(C(=O)Nc2ccc(OC)nc2)sc1C | > 11 µM (inactive)
Cc1c(Cl)cccc1NC(=S)N1CCN(C(=O)C2CCCO2)CC1 (stereo unspecified) | > 11 µM (inactive)
O=C(N/N=C/c1cccn1-c1cccc(C(=O)O)c1)Nc1ccccc1 | > 11 µM (inactive)
CCOC(=O)c1nn(-c2ccc(C)cc2)c2nc(Nc3ccccc3)cc(=O)n12 | > 11 µM (inactive)
COCCN1CCC(CNCc2c(C(=O)N3CCCCC3)nc3c(C)cccn23)C1 (stereo unspecified) | > 11 µM (inactive)

Structure (SMILES) | EC50
CC(C)(C)OC(=O)NCCCCC1=CC2=CC(=O)C(C)(OC(=O)c3cnc4ccccc4n3)C(=O)C2=CO1 (stereo unspecified) | > 11 µM (inactive)
COc1ccc(N/C=C\C(=O)c2ccc(C)cc2)cc1OC | > 11 µM (inactive)
CSc1nsc2nc(=O)c(/C=C3\C=Nc4ccccc43)c(N)n12 | > 11 µM (inactive)
O=C(COC(=O)C1CCCC1)Nc1ncc(Cl)cc1Cl | > 11 µM (inactive)
COC/C=C/C1=CC2=CC(=O)C(C)(OC(=O)CCC(=O)OC)C(=O)C2=CO1 (stereo unspecified) | > 11 µM (inactive)
CN1C(=O)C(=Cc2sc(=O)n(-c3ccccc3)c2N2CCCCC2)C(=O)N(C)C1=O | > 11 µM (inactive)
Nc1ccc2nc3c(=O)[nH]c(=S)[nH]c3nc2c1 | > 11 µM (inactive)
CCOc1ccccc1N1CCN(C(=O)CNC(=O)c2ccccc2F)CC1 | > 11 µM (inactive)
COCCCNC(=O)CCC(=O)NNc1nc2ccccc2c2nc(C)nn12 | > 11 µM (inactive)
COc1cccc(C2C(C(=O)c3cc4cccc(OC)c4o3)=C(O)C(=O)N2c2cc(C)on2)c1OC (stereo unspecified) | > 11 µM (inactive)
c1coc(-c2nnc(-c3ccco3)nn2)c1 | > 11 µM (inactive)
O=C(O)CSc1cc(NS(=O)(=O)c2ccc(Cl)cc2)c2ccccc2c1O | > 11 µM (inactive)
Fc1ccc(C2=CC(c3ccco3)n3ncnc3N2)cc1 (stereo unspecified) | > 11 µM (inactive)
COc1ccc2nc3ccccc3nc2c1NC(=O)c1ccc(Br)cc1 | > 11 µM (inactive)
CC1=C(C#N)C(=O)OC(C)(C)C1 | > 11 µM (inactive)
COc1ccccc1CCC(=O)OCc1csc(CC(=O)Nc2ccccc2C)n1 | > 11 µM (inactive)
CCCCC1=CC2=C(c3ccco3)C(=O)C(C)(OC(=O)c3ccc(OC)cc3)C(=O)C2=CN1C1CC1 (stereo unspecified) | > 11 µM (inactive)
Cc1ccc2[nH]c(=O)c(CN(CCO)Cc3nnnn3CCc3ccccc3)cc2c1 | > 11 µM (inactive)
Cc1ccc(Cn2c(=N)c(C(=O)NCC3CCCO3)cc3c(=O)n4ccccc4nc32)cc1 (stereo unspecified) | > 11 µM (inactive)
COC(=O)c1ccc(-n2c(C)ccc2-c2ccccc2)cc1 | > 11 µM (inactive)
Cc1cc(N2C(=O)C(O)=C(C(=O)c3cc4ccccc4o3)C2c2ccc([N+](=O)[O-])cc2)no1 (stereo unspecified) | > 11 µM (inactive)
CC(=NCc1ccc2c(c1)OCO2)c1c(O)n(-c2ccccc2)c(=O)[nH]c1=O | > 11 µM (inactive)

Structure (SMILES) | EC50
CCOC(=O)N1CCN(C(=O)c2ccc3c(c2)NC(=O)/C(=C\c2ccc(OC)c(OC)c2)S3)CC1 | > 11 µM (inactive)
CCCCOC(=O)CSC1=C(C#N)C(c2ccccc2OCC)C(C#N)C(=O)N1 (stereo unspecified) | > 11 µM (inactive)
O=C(NNC(=O)c1ccccc1[N+](=O)[O-])c1cnccn1 | > 11 µM (inactive)
COC(=O)C1=C(C)N(Cc2ccccc2)C(=NCC(C)C)N[C@H]1c1ccccc1 | > 11 µM (inactive)
CCCN1CC=C2C(C#N)=C(N)C(C#N)(C#N)C(c3cc(OC)ccc3OC)C2C1 (stereo unspecified) | > 11 µM (inactive)
COC(=O)c1ccc(C2Nc3ccc(/C(C)=N/NC(=O)C(OC)c4ccccc4)cc3C3C=CCC32)cc1 (stereo unspecified) | > 11 µM (inactive)
COc1ccccc1OCC(=O)N/N=C/c1c(O)ccc2ccccc12 | > 11 µM (inactive)
CN1CC=C2C(C#N)=C(N)C(C#N)(C#N)[C@H](c3cccc(Cl)c3)C2C1 (stereo partly specified) | > 11 µM (inactive)
COc1ccc2c(c1)c1nc3ccccc3nc1n2CCCN1C(=O)c2ccccc2C1=O | > 11 µM (inactive)
NC(=Nc1ccc(N)cc1)C(N)=Nc1ccc(N)cc1 | > 11 µM (inactive)
COc1cc(/C=C2\C(=O)NN(c3ccccc3)C2=O)cc([N+](=O)[O-])c1O | > 11 µM (inactive)
CN(C)CCCN(C(=O)/C=C/c1cccs1)c1nc2ccc(F)cc2s1 | > 11 µM (inactive)
C=CCOc1cccc(C2C(C(=O)c3ccc(C)o3)=C(O)C(=O)N2c2nnc(C)s2)c1 (stereo unspecified) | > 11 µM (inactive)
CCC(=O)OC1(C)C(=O)C=C2C=C(CCCC(=O)OC)OC=C2C1=O (stereo unspecified) | > 11 µM (inactive)
CC1=Nc2ccc(C)cc2/C1=C/c1c(N)n2nc(CC(=O)N3CCOCC3)sc2nc1=O | > 11 µM (inactive)
Cc1ccc(/C=C2/C(=O)c3ccc(C(=O)O)cc3C2=O)o1 | > 11 µM (inactive)
N#C/C(=C/c1ccc(CNS(=O)(=O)c2ccccc2)o1)C(=O)NCc1ccccc1 | > 11 µM (inactive)
Cc1ccc(-c2nc(C=Nc3ccc(O)cc3)c(O)o2)cc1 | > 11 µM (inactive)
C=CCN=c1scc(-c2ccco2)n1/N=C/c1ccc(O)c(O)c1O | > 11 µM (inactive)
COc1ccc(N=Cc2c(O)n(-c3cccc(C)n3)c(=O)c3ccccc23)c(OC)c1 | > 11 µM (inactive)
CCOC(=O)CSc1nc2ccc(Nc3nc(N4CCOCC4)nc(N4CCOCC4)n3)cc2s1 | > 11 µM (inactive)
O=[N+]([O-])c1cccc(-c2cn3nc(-c4ccccc4)c(-c4ccccc4)nc3n2)c1 | > 11 µM (inactive)

— PubChem BioAssay AID1959 (Broad Institute, 2009)
